Data published in US20080319375A1, “Materials, Methods, and Systems for Cavitation-mediated Ultrasonic Drug Delivery in vivo” (Biovaluation & Analysis, Inc., priority 2007, published 2008).

Assay: Micropipette aspiration of polymersome membranes
Type: physicochemical
Text: Thermal undulations of the quasi-spherical polymersome membranes provide an immediate indication of membrane softness. […] The micromanipulations are done with micropipette systems, as described above, and analogous to those described by Longo et al. (1997) and by Discher et al. (1994).
Analogous to a lipid bilayer, at low but increasing aspiration pressures, the thermally undulating polymersome membrane is progressively smoothed, increasing the projected area logarithmically with tension, t. From the slope of this increase (i.e., in tension units of mN/m) versus the fractional change, α, in vesicle area, the bending modulus, Kb, is calculated (see, e.g., Evans et al., 1990) with the following equation:
Kb≅kBT ln(t)/(8απ)+constant Equation 3 […]
Despite the comparative toughness of the polymersome membrane, a core “cavitation pressure,” Pc, may be readily estimated as pc=tc/d (5) yielding a value of pc=−25 atm. […] Bulk liquids such as water and light organics, are commonly reported to have measured tensile strengths of such a magnitude as may be generically estimated from a ratio of nominal interfacial tensions to molecular dimensions (i.e., ˜γ/d).

CCCCCCCC/C=C\CCCCCCCC(=O)O[C@H](COC(=O)CCCCCCCCCCCCCCCCC)COP(=O)([O-])OCC[N+](C)(C)C [SOPC, 1-stearoyl-2-oleoyl phosphatidylcholine]
area expansion modulus, Ka: ~180 mN/m
